Results: PMC8373216, “Development and Preclinical Evaluation of New Inhaled Lipoglycopeptides for the Treatment of Persistent Pulmonary Methicillin-Resistant Staphylococcus aureus Infections” (Antimicrobial Agents and Chemotherapy, 2021)
Converted amounts (≈) assume the structure as drawn. Where two headings read alike, the source gives them in different places.

Assays:
[1] = tested on: Staphylococcus epidermidis; experiment: Expanded panel broth microdilution MIC/MBC; assay type: cell-based; conditions: for MIC: Staphylococcus epidermidis
[2] = tested on: Staphylococcus haemolyticus; experiment: Expanded panel broth microdilution MIC; assay type: cell-based
Staphylococcus hominis = experiment: Expanded panel broth microdilution MIC; assay type: cell-based
Enterococcus faecalis = experiment: Expanded panel broth microdilution MIC/MBC; assay type: cell-based
Streptococcus pneumoniae = experiment: Expanded panel broth microdilution MIC/MBC; assay type: cell-based
Streptococcus pyogenes = experiment: Expanded panel broth microdilution MIC/MBC; assay type: cell-based; conditions: for MIC: Streptococcus pyogenes
[3] = tested on: Streptococcus constellatus; experiment: Expanded panel broth microdilution MIC; assay type: cell-based
Streptococcus mitis = experiment: Expanded panel broth microdilution MIC/MBC; assay type: cell-based; conditions: for MIC: Streptococcus mitis
Streptococcus oralis = experiment: Expanded panel broth microdilution MIC; assay type: cell-based
Clostridioides difficile = experiment: Expanded panel broth microdilution MIC; assay type: cell-based
[4] = tested on: Peptostreptococcus anaerobius; experiment: Expanded panel broth microdilution MIC; assay type: cell-based
[5] = tested on: MRSA (ATCC BAA 1556; USA300); experiment: Acute pulmonary MRSA infection in neutropenic rats, nebulized nose-only inhalation; assay type: in vivo, Staphylococcus aureus; conditions: inhaled at 24 and 32 h postinfection, lungs at 48 h, RV40 14.4 mg/kg, RV94 18.8 mg/kg delivered
Method: Rats were rendered neutropenic with intraperitoneal (i.p.) cyclophosphamide on day −4 (150 mg/kg) and day −1 (100 mg/kg) relative to the challenge. On day 0 at 0 h, rats were challenged with MRSA via intranasal instillation at a target titer of 8.0 to 8.3 log10 CFU. At 24 and 32 h postchallenge, rats were loaded into a 12-port inhalation dosing tower, where they received nebulized drug or vehicle control treatments by nose-only inhalation. Animals were euthanized at 48 h postinfection for enumeration of lung MRSA titer. MRSA lung titer of test article treatments versus control is plotted for three separate experiments. […] Statistics are based on the Kolmogorov-Smirnov test for drug treatment versus control (RV94, P = 0.01). LOD = 2.1 log10 CFU/lungset.
Male Sprague Dawley rats (Envigo, Indianapolis, IN) weighing between 225 and 250 g were used in these studies. Rats were housed and acclimated to the study facility as described in the PK methods section. Rats were rendered neutropenic through a series of intraperitoneal cyclophosphamide (Sigma-Aldrich) injections on day −4 (150 mg/kg) and day −1 (100 mg/kg) relative to the challenge. On day 0 at 0 h, rats were challenged with MRSA ATCC BAA 1556 via intranasal instillation at a target titer of 8.0 to 8.3 log10 CFU using optical density and back-counting inoculum CFU. To prepare the inoculum, a frozen aliquot of the organism stored at −80°C was thawed, transferred into TSB, and incubated at 37°C while shaking for 16 h. Cultures were then centrifuged at 2,000 × g for 5 min, and the resulting pellet was resuspended in PBS and equilibrated. For the challenge procedure, rats were first anesthetized through use of 2 to 5% isoflurane in 100% oxygen, then restrained with a scruff grip and a total of 200 μl of inoculum was quickly introduced to one nare. The rat was held in a vertical position until the challenge was fully inhaled. Rats were monitored following challenge to ensure that normal respiration was achieved and then returned to their cage. […] At necropsy, whole lungs were aseptically removed and lung weights were recorded. […]

S. aureus = experiment: Expanded panel broth microdilution MIC/MBC; conditions: for MIC: Staphylococcus aureus

## CCCCCCCCCCNCCN[C@@]1(C)C[C@H](O[C@H]2[C@H](Oc3c4cc5cc3Oc3ccc(cc3Cl)[C@@H](O)[C@@H](NC(=O)[C@@H](CC(C)C)NC)C(=O)N[C@@H](CC(N)=O)C(=O)N[C@H]5C(=O)N[C@H]3C(=O)N[C@H](C(=O)N[C@H](C(=O)O)c5cc(O)cc(O)c5-c5cc3ccc5O)[C@H](O)c3ccc(c(Cl)c3)O4)O[C@H](CO)[C@@H](O)[C@@H]2O)O[C@@H](C)[C@H]1O [RV40, N-decylaminoethylvancomycin]
[1]; S. epidermidis MRSE, MBC on one organism
  MIC:MBC: 1
[1]; ATCC49134, S. epidermidis ATCC 49134, MSSE, read-out: MIC
  MIC: 0.015 µg/mL (≈ 9.19 nM)
[1]; MRSE, S. epidermidis MMX 762, MRSE, read-out: MIC
  MIC: 0.008 µg/mL (≈ 4.9 nM)
[1]; MRSE, S. epidermidis MMX 5145, MRSE, read-out: MIC
  MIC: 0.004 µg/mL (≈ 2.45 nM)
[1]; MRSE, S. epidermidis MRSE, 2 isolates, read-out: MIC (median)
  MIC: 0.008 µg/mL (≈ 4.9 nM)
[1]; S. epidermidis MSSE, 1 isolate, read-out: MIC
  MIC: 0.015 µg/mL (≈ 9.19 nM)
[2]; ATCC29970, S. haemolyticus ATCC 29970, read-out: MIC
  MIC: 0.015 µg/mL (≈ 9.19 nM)
[2]; S. haemolyticus, 1 isolate, read-out: MIC
  MIC: 0.015 µg/mL (≈ 9.19 nM)
Staphylococcus hominis; ATCC27844, S. hominis ATCC 27844, read-out: MIC
  MIC: 0.015 µg/mL (≈ 9.19 nM)
Staphylococcus hominis; S. hominis, 1 isolate, read-out: MIC
  MIC: 0.015 µg/mL (≈ 9.19 nM)
Enterococcus faecalis; E. faecalis VSE, MBC on one organism
  MIC:MBC: >8
Enterococcus faecalis; E. faecalis VanA VRE
  MIC:MBC: 8
Enterococcus faecalis; E. faecalis VanA VRE, 1 isolate
  MIC: 0.5 µg/mL (≈ 306 nM)
Enterococcus faecalis; Enterococcus faecalis, ATCC29212, E. faecalis ATCC 29212, VSE, read-out: MIC
  MIC: 0.015 µg/mL (≈ 9.19 nM)
Enterococcus faecalis; Enterococcus faecalis, E. faecalis MMX 1086, VanA VRE, read-out: MIC
  MIC: 0.5 µg/mL (≈ 306 nM)
Enterococcus faecalis; Enterococcus faecalis, E. faecalis MMX 4176, VSE, read-out: MIC
  MIC: 0.03 µg/mL (≈ 18.4 nM)
Enterococcus faecalis; Enterococcus faecalis, E. faecalis VSE, 2 isolates, read-out: MIC (median)
  MIC: 0.023 µg/mL (≈ 14.1 nM)
Streptococcus pneumoniae; S. pneumoniae PISP, MBC on one organism
  MIC:MBC: 1
Streptococcus pneumoniae; S. pneumoniae PRSP, 1 isolate
  MIC: ≤0.008 µg/mL
Streptococcus pneumoniae; Streptococcus pneumoniae, ATCC49619, S. pneumoniae ATCC 49619, PISP, read-out: MIC
  MIC: 0.004 µg/mL (≈ 2.45 nM)
Streptococcus pneumoniae; Streptococcus pneumoniae, S. pneumoniae MMX 432, PRSP, read-out: MIC
  MIC: ≤ 0.008 µg/mL
Streptococcus pneumoniae; Streptococcus pneumoniae, S. pneumoniae MMX 747, PISP, read-out: MIC
  MIC: 0.004 µg/mL (≈ 2.45 nM)
Streptococcus pneumoniae; Streptococcus pneumoniae, S. pneumoniae PISP, 2 isolates, read-out: MIC (median)
  MIC: 0.004 µg/mL (≈ 2.45 nM)
Streptococcus pyogenes; S. pyogenes ermR
  MIC:MBC: 1
Streptococcus pyogenes; ATCC19615, S. pyogenes ATCC 19615, read-out: MIC
  MIC: 0.06 µg/mL (≈ 36.8 nM)
Streptococcus pyogenes; S. pyogenes MMX 946, ermR, read-out: MIC
  MIC: 0.008 µg/mL (≈ 4.9 nM)
Streptococcus pyogenes; S. pyogenes MMX 8778, read-out: MIC
  MIC: 0.015 µg/mL (≈ 9.19 nM)
Streptococcus pyogenes; S. pyogenes ermR, 1 isolate, read-out: MIC
  MIC: 0.008 µg/mL (≈ 4.9 nM)
Streptococcus pyogenes; S. pyogenes, 2 isolates, read-out: MIC (median)
  MIC: 0.04 µg/mL (≈ 24.5 nM)
[3]; S. constellatus AGS, 1 isolate
  MIC: 0.008 µg/mL (≈ 4.9 nM)
[3]; Streptococcus constellatus, S. constellatus (AGS) MMX 5677, read-out: MIC
  MIC: 0.008 µg/mL (≈ 4.9 nM)
Streptococcus mitis; S. mitis MGS, MBC on one organism
  MIC:MBC: 1
Streptococcus mitis; ATCC49456, S. mitis (MGS) ATCC 49456, read-out: MIC
  MIC: 0.008 µg/mL (≈ 4.9 nM)
Streptococcus mitis; S. mitis (MGS) MMX 5798, read-out: MIC
  MIC: 0.03 µg/mL (≈ 18.4 nM)
Streptococcus mitis; S. mitis MGS, 2 isolates, read-out: MIC (median)
  MIC: 0.02 µg/mL (≈ 12.3 nM)
Streptococcus oralis; S. oralis MGS, 1 isolate
  MIC: 0.015 µg/mL (≈ 9.19 nM)
Streptococcus oralis; Streptococcus oralis, S. oralis (MGS) MMX 5821, read-out: MIC
  MIC: 0.015 µg/mL (≈ 9.19 nM)
Clostridioides difficile; ATCCBAA1805, C. difficile ATCC BAA-1805, ribo 027, read-out: MIC
  MIC: 0.06 µg/mL (≈ 36.8 nM)
Clostridioides difficile; ATCCBAA1870, C. difficile ATCC BAA-1870, NAP1;ribo 027, read-out: MIC
  MIC: 0.12 µg/mL (≈ 73.5 nM)
Clostridioides difficile; C. difficile ATTC 700057, toxAB-, read-out: MIC
  MIC: 0.06 µg/mL (≈ 36.8 nM)
Clostridioides difficile; C. difficile NAP1;ribo 027, 1 isolate, read-out: MIC
  MIC: 0.12 µg/mL (≈ 73.5 nM)
Clostridioides difficile; C. difficile ribo 027, 1 isolate, read-out: MIC
  MIC: 0.06 µg/mL (≈ 36.8 nM)
Clostridioides difficile; C. difficile toxAB-, 1 isolate, read-out: MIC
  MIC: 0.06 µg/mL (≈ 36.8 nM)
[4]; ATCC27337, P. anaerobius ATCC 27337, read-out: MIC
  MIC: 0.008 µg/mL (≈ 4.9 nM)
[4]; P. anaerobius, 1 isolate, read-out: MIC
  MIC: 0.008 µg/mL (≈ 4.9 nM)
[5]
  Average reduction in lung MRSA titer versus vehicle control: 0.8 log10 CFU
S. aureus; S. aureus MRSA, MBC median of n = 5
  MIC:MBC: 1
S. aureus; S. aureus MSSA, MBC on one organism
  MIC:MBC: 1
S. aureus; S. aureus VISA, MBC median of n = 2
  MIC:MBC: 1
S. aureus; S. aureus hVISA, MBC on one organism
  MIC:MBC: 1
S. aureus; ATCC13709 / MSSA, S. aureus ATCC 13709, MSSA
  MIC: 0.015 µg/mL (≈ 9.19 nM)
S. aureus; ATCC29213 / MSSA, S. aureus ATCC 29213, MSSA
  MIC: 0.008 µg/mL (≈ 4.9 nM)
S. aureus; ATCC43300 / MRSA, S. aureus ATCC 43300, MRSA
  MIC: 0.008 µg/mL (≈ 4.9 nM)
S. aureus; ATCCBAA1556|MRSA|USA300, S. aureus ATCC BAA-1556, MRSA, USA300 (expanded panel)
  MIC: 0.008 µg/mL (≈ 4.9 nM)
S. aureus; ATCCBAA1756|MRSA|NRS384|USA300, S. aureus NRS 384, ATCC BAA-1756, MRSA, USA300
  MIC: 0.008 µg/mL (≈ 4.9 nM)
S. aureus; MRSA / NRS123 / USA400, S. aureus NRS123, MRSA, USA400
  MIC: 0.008 µg/mL (≈ 4.9 nM)
S. aureus; MRSA / NRS725 / USA300, S. aureus NRS725, MRSA, USA300
  MIC: 0.008 µg/mL (≈ 4.9 nM)
S. aureus; MRSA / USA300, S. aureus MMX 3982, MRSA, USA300
  MIC: 0.008 µg/mL (≈ 4.9 nM)
S. aureus; MRSA, S. aureus MMX 5715, MRSA
  MIC: 0.015 µg/mL (≈ 9.19 nM)
S. aureus; MRSA, S. aureus MMX 7899, MRSA
  MIC: 0.008 µg/mL (≈ 4.9 nM)
S. aureus; MRSA, S. aureus MMX 7900, MRSA
  MIC: 0.008 µg/mL (≈ 4.9 nM)
S. aureus; MRSA, S. aureus MMX 7901, MRSA
  MIC: 0.008 µg/mL (≈ 4.9 nM)
S. aureus; MRSA, S. aureus MMX 7902, MRSA
  MIC: 0.015 µg/mL (≈ 9.19 nM)
S. aureus; MRSA, S. aureus MMX 7903, MRSA
  MIC: 0.008 µg/mL (≈ 4.9 nM)
S. aureus; MRSA, read-out: MIC (median), S. aureus MRSA, 12 isolates
  MIC: 0.008 µg/mL (≈ 4.9 nM)
S. aureus; MSSA, S. aureus MMX 7907, MSSA
  MIC: 0.008 µg/mL (≈ 4.9 nM)
S. aureus; MSSA, S. aureus MMX 7908, MSSA
  MIC: 0.015 µg/mL (≈ 9.19 nM)
S. aureus; MSSA, read-out: MIC (median), S. aureus MSSA, 4 isolates
  MIC: 0.012 µg/mL (≈ 7.35 nM)
S. aureus; NRS1 / VISA, S. aureus NRS1, VISA, Mu50
  MIC: 0.06 µg/mL (≈ 36.8 nM)
S. aureus; NRS2, S. aureus NRS2, hVISA;Mu3
  MIC: 0.015 µg/mL (≈ 9.19 nM)
S. aureus; NRS4 / VISA, S. aureus NRS4, VISA
  MIC: 0.06 µg/mL (≈ 36.8 nM)
S. aureus; NRS13 / VISA, S. aureus NRS13, VISA
  MIC: 0.03 µg/mL (≈ 18.4 nM)
S. aureus; NRS22 / VISA, S. aureus NRS22, VISA
  MIC: 0.06 µg/mL (≈ 36.8 nM)
S. aureus; NRS23, S. aureus NRS23, hVISA
  MIC: 0.03 µg/mL (≈ 18.4 nM)
S. aureus; NRS52 / VISA, S. aureus NRS52, VISA
  MIC: 0.03 µg/mL (≈ 18.4 nM)
S. aureus; VISA, read-out: MIC (median), S. aureus VISA, 5 isolates
  MIC: 0.06 µg/mL (≈ 36.8 nM)
S. aureus; read-out: MIC (median), S. aureus hVISA, 2 isolates
  MIC: 0.023 µg/mL (≈ 14.1 nM)
